Drawing on ChEMBL document CHEMBL5252634, “Design, synthesis and in vitro cytotoxicity evaluation of indolo-pyrazoles grafted with thiazolidinone as tubulin polymerization inhibitors” (RSC Med Chem, 2023), this text covers IC50 for three compounds.

A word on the IC50: it is the concentration needed to halve the response being measured.

Assay [1] deals with HeLa. The assay can be described thus: Cytotoxicity against human HeLa cells assessed as reduction in cell viability. It is filed as functional, cell-based.
Assay [2] concerns the target Tubulin. The assay can be described thus: Inhibition of tubulin polymerization (unknown origin). The assay is classed as cell-based, Homo sapiens.
A short description of assay [3]: Cytotoxicity against multidrug resistance human U87 cells assessed as cell growth inhibition. It is filed as functional, cell-based, U-87MG ATCC. The settings on record: U-87 MG.
The test system of assay [4] is PC-3. The assay can be described thus: Cytotoxicity against multidrug resistance human PC-3 cells assessed as cell growth inhibition. The assay is classed as functional, cell-based.
Assay [5] has as its system SK-OV-3. Briefly: Cytotoxicity against multidrug resistance human SK-OV-3 cells assessed as cell growth inhibition. It is filed as functional, cell-based.

Regarding `COc1cc(NC(=O)/C=C/c2cc(-c3cc(OC)c(OC)c(OC)c3)n[nH]2)cc(OC)c1OC`, in assay [1], the IC50 worked out at 0.4 µM.

`CCOc1ccc(-c2n[nH]cc2-c2cc(OC)c(OC)c(OC)c2)cc1` gave an IC50 in assay [2] of 0.35 µM.

In the case of `O=C(Nc1ccncc1)C(=O)c1cn(Cc2ccc(Cl)cc2)c2ccccc12` [INDIBULIN], the 50% inhibitory concentration (IC50) in assay [3] amounted to 0.077 µM; in assay [4], 0.064 µM; in assay [5] it was 0.036 µM.
